Results as given in US11420947B2, “(S)-n-hydroxy-2-(2-(4-methoxyphenyl)butanamido)thiazole-5-carboxamide and pharmaceutically acceptable salts thereof” (TRANSLATIONAL DRUG DEVELOPMENT, LLC, priority 2018, dated 2022).
Where two headings read alike, the source gives them in different places.

Tests used:
BIN-67 = assay: CellTiter-Glo cell viability assay; type: cell-based, Human; details: for IC50: BIN-67, OVARIAN, Human Small Cell Carcinoma of the Ovary, 72 hours
Protocol: (§1) Cell viability in the presence of varying concentrations of the above listed compounds at different time points was used to assess cytotoxicity and the effect of the compounds on cell proliferation.
(§2) Cell viability was measured by the CellTiter-Glo® cell viability assay from Promega (Madison, Wis.). The CellTiter-Glo® Luminescent Cell Viability Assay is a homogeneous method to determine the number of viable cells in culture based on quantitation of the ATP present, which signals the presence of metabolically active cells. Following treatment, CellTiter-Glo® is added to treatment wells and incubated at 37° C. luminescence values were measured at using a Molecular Devices Spectramax microplate reader
(§3) Cells were grown to 70% confluency, trypsinized, counted, and seeded in 96 well flat-bottom plates at a final concentration of 2.5×10^3-5×10^3 cells/well (Day 0). Cells were allowed to incubate in growth media for 24 hours. Treatment with the test agents or standard agents began on Day 1 and continued for 72 hours. At the 72-hour timepoint, treatment containing media was removed. Viable cell numbers are quantified by the CellTiter-Glo® cell viability assay as described above. Results from these studies were used to calculate an IC50 value (concentration of drug that inhibits cell growth by 50 percent of control) for each compound.
(§4) For single agent and combination studies, data from each experiment was collected and expressed as % Cell Growth using the following calculation: % Cell Growth=(ftest/fvehicle)×100
(§5) Where test is the fluorescence of the tested sample, and fvehicle is the fluorescence of the vehicle in which the drug is dissolved. Dose response graphs and IC50 values were generated using Prism 6 software (GraphPad) using the following equation: Y=(Top-Bottom)/(1+10^((logIC^50^-X)-HillSlope))

A2780cp = assay: CellTiter-Glo cell viability assay; type: cell-based, Human; details: for IC50: A2780C/P, A2780cp, OVARIAN, Platinum res-Human Ovarian, 72 hours
Protocol: as §1, §2, §3, §4, §5

OVCAR-3 = assay: CellTiter-Glo cell viability assay; type: cell-based, Human; details: for IC50: OVCAR-3, OVARIAN, Human Ovarian Carcinoma, 72 hours
Protocol: as §1, §2, §3, §4, §5

SCCOHT-1 = assay: CellTiter-Glo cell viability assay; type: cell-based, Human; details: for IC50: SCCOHT-1, OVARIAN, Human Small Cell Carcinoma of the Ovary, 72 hours
Protocol: as §1, §2, §3, §4, §5

COV434 = assay: CellTiter-Glo cell viability assay; type: cell-based, Human; details: for IC50: COV434, OVARIAN, Human Ovarian Granulosa, 72 hours
Protocol: as §1, §2, §3, §4, §5

IGROV-1 = assay: CellTiter-Glo cell viability assay; type: cell-based, Human; details: for IC50: IGROV-1, OVARIAN, Human Ovarian Adenocarcinoma, 72 hours
Protocol: as §1, §2, §3, §4, §5

A2780 = assay: CellTiter-Glo cell viability assay; type: cell-based, Human; details: for IC50: A2780, OVARIAN, Human Ovarian, 72 hours
Protocol: as §1, §2, §3, §4, §5

OVCAR-8 = assay: CellTiter-Glo cell viability assay; type: cell-based, Human; details: for IC50: OVCAR-8, OVARIAN, Human Ovarian Carcinoma, 72 hours
Protocol: as §1, §2, §3, §4, §5

SKOV-3 = assay: CellTiter-Glo cell viability assay; type: cell-based, Human; details: for IC50: SK-OV-3, SKOV-3, OVARIAN, Human Ovarian Carcinoma, 72 hours
Protocol: as §1, §2, §3, §4, §5

[1] = Pharmacokinetics studies in mice; type: in vivo; details: for AUC(0-inf) / AUC(0-t) / Cmax / Tmax / half-life / bioavailability / Vd/F: mouse, in vivo; for Vd/F: read-out: Vz/Fobs
Text: Volume of distribution is one of the most important pharmacokinetic properties of a drug candidate and for an anticancer drug can result in increased drug distribution to the tumor.

HepG2 = assay: CellTiter-Glo cell viability assay; type: cell-based; details: for IC50: Homo sapiens, HepG2, LIVER, HCC, 72 hours
Protocol: as §1, §2, §3, §4, §5

MeWo = assay: CellTiter-Glo cell viability assay; type: cell-based; details: for IC50: Homo sapiens, MeWo, MELANOMA, LN Met, 72 hours
Protocol: as §1, §2, §3, §4, §5

Y79 = assay: CellTiter-Glo cell viability assay; type: cell-based; details: for IC50: Homo sapiens, Y79, RETINOBLASTOMA, Retina, 72 hours
Protocol: as §1, §2, §3, §4, §5

HCC1806 = assay: CellTiter-Glo cell viability assay; type: cell-based; details: for IC50: Homo sapiens, HCC1806, BREAST, acantholytic squamous cell carcinoma, 72 hours
Protocol: as §1, §2, §3, §4, §5

SK-Hep-1 = assay: CellTiter-Glo cell viability assay; type: cell-based; details: for IC50: Homo sapiens, SK-HEP1, SK-Hep-1, LIVER, HCC, 72 hours
Protocol: as §1, §2, §3, §4, §5

A498 = assay: CellTiter-Glo cell viability assay; type: cell-based; details: for IC50: Homo sapiens, A498, RENAL, RCC-VHL mut, 72 hours
Protocol: as §1, §2, §3, §4, §5

MC38 = assay: CellTiter-Glo cell viability assay; type: cell-based, Murine; details: for IC50: Mus musculus, MC-38, MC38, MURINE COLON, Colon, 72 hours
Protocol: as §1, §2, §3, §4, §5

L1210 = assay: CellTiter-Glo cell viability assay; type: cell-based, Murine; details: for IC50: Mus musculus, L1210, HEMATOPIETIC, Murine Leukemia, 72 hours
Protocol: as §1, §2, §3, §4, §5

GL261 = assay: CellTiter-Glo cell viability assay; type: cell-based, Murine; details: for IC50: Mus musculus, GL261, MURINE BRAIN, Murine Glioma, 72 hours
Protocol: as §1, §2, §3, §4, §5

4T1 = assay: CellTiter-Glo cell viability assay; type: cell-based, Murine; details: for IC50: Mus musculus, 4T1, BREAST, Murine Breast Tumor, 72 hours
Protocol: as §1, §2, §3, §4, §5

CT26 = assay: CellTiter-Glo cell viability assay; type: cell-based, Murine; details: for IC50: Mus musculus, CT26, MURINE COLON, Colon, 72 hours
Protocol: as §1, §2, §3, §4, §5

[2] = IV-1 mg/kg, 5% Ethanol 5% Cremophor 90% Saline
[3] = PO-5 mg/kg, 10% Ethanol 90% Labrasol
[4] = SC-5 mg/kg, 5% Ethanol 5% Cremophor 90% Saline

## CC[C@H](C(=O)Nc1ncc(C(=O)NO)s1)c1ccc(OC)cc1 [#1a, (S)—N-hydroxy-2-(2-(4-methoxyphenyl)butanamido)thiazole-5-carboxamide]
BIN-67
  IC50: 0.051 µM
BIN-67; ratio of IC50, BIN-67
  #1/#1a: 1.33
  #1b/#1a: 8.82
A2780cp
  IC50: 0.062 µM
A2780cp; ratio of IC50, A2780cp
  #1/#1a: 1.89
  #1b/#1a: 6.1
OVCAR-3
  IC50: 0.039 µM
OVCAR-3; ratio of IC50, OVCAR-3
  #1/#1a: 1.67
  #1b/#1a: 6.26
SCCOHT-1
  IC50: 0.293 µM
SCCOHT-1; ratio of IC50, SCCOHT-1
  #1/#1a: 1.16
  #1b/#1a: 0.63
COV434
  IC50: 0.035 µM
COV434; ratio of IC50, COV434
  #1b/#1a: 9.69
IGROV-1
  IC50: 0.054 µM
IGROV-1; ratio of IC50, IGROV-1
  #1/#1a: 1.44
  #1b/#1a: 9.07
A2780
  IC50: 0.032 µM
A2780; ratio of IC50, A2780
  #1/#1a: 1.5
  #1b/#1a: 6.84
OVCAR-8
  IC50: 0.021 µM
OVCAR-8; ratio of IC50, OVCAR-8
  #1/#1a: 1.71
  #1b/#1a: 5.38
SKOV-3
  IC50: 0.063 µM
SKOV-3; ratio of IC50, SKOV-3
  #1/#1a: 1.79
  #1b/#1a: 8.08
[1]; [2]
  AUC % Extrap: 0.20%
  CI/Fobs: 156 mL/min/kg
  AUC(0-inf): 107 ng·h/mL
  AUC(0-t): 106 ng·h/mL
  Cmax: 131 ng/mL
  Tmax: 15 min
  half-life: 55.8 min
[1]; PO-5 mg/kg
  AUC % Extrap: 1.93%
  CI/Fobs: 1122 mL/min/kg
  AUC(0-inf): 74.3 ng·h/mL
  AUC(0-t): 72.8 ng·h/mL
  Cmax: 28.7 ng/mL
  Tmax: 30 min
  bioavailability: 13.9%
  half-life: 332 min
  Vd/F: 537 L/kg
[1]; [3]
  AUC % Extrap: 1.93%
  CI/Fobs: 1122 mL/min/kg
[1]; [4]
  AUC % Extrap: 0.85%
  CI/Fobs: 240.3 mL/min/kg
  AUC(0-inf): 347 ng·h/mL
  AUC(0-t): 344 ng·h/mL
  Cmax: 252 ng/mL
  Tmax: 15 min
  bioavailability: 65.1%
  half-life: 73.2 min
  Vd/F: 25.3 L/kg
HepG2
  IC50: 0.076 µM
HepG2; ratio of IC50, HepG2
  #1/#1a: 2.83
  #1b/#1a: 8.3
MeWo
  IC50: 0.083 µM
MeWo; ratio of IC50, MeWo
  #1/#1a: 1.9
  #1b/#1a: 7.37
Y79
  IC50: 0.087 µM
Y79; ratio of IC50, Y79
  #1/#1a: 4.17
  #1b/#1a: 7.25
HCC1806
  IC50: 0.071 µM
HCC1806; ratio of IC50, HCC1806
  #1/#1a: 2.52
  #1b/#1a: 6.55
SK-Hep-1
  IC50: 0.149 µM
SK-Hep-1; ratio of IC50, SK-Hep-1
  #1/#1a: 2.51
  #1b/#1a: 6.71
A498
  IC50: 0.047 µM
A498; ratio of IC50, A498
  #1/#1a: 1.34
  #1b/#1a: 7.49
MC38
  IC50: 0.058 µM
MC38; ratio of IC50, MC38
  #1/#1a: 2.21
  #1b/#1a: 8.5
L1210
  IC50: 0.038 µM
L1210; ratio of IC50, L1210
  #1/#1a: 1.55
  #1b/#1a: 8.53
GL261
  IC50: 0.132 µM
GL261; ratio of IC50, GL261
  #1/#1a: 2.82
  #1b/#1a: 9.11
4T1
  IC50: 0.023 µM
4T1; ratio of IC50, 4T1
  #1/#1a: 1.57
  #1b/#1a: 8.04
CT26
  IC50: 0.465 µM
CT26; ratio of IC50, CT26
  #1/#1a: 2.83
  #1b/#1a: 6.91

## CC[C@@H](C(=O)Nc1ncc(C(=O)NO)s1)c1ccc(OC)cc1 [#1b, (R)—N-hydroxy-2-(2-(4-methoxyphenyl)butanamido)thiazole-5-carboxamide]
BIN-67
  IC50: 0.45 µM
A2780cp
  IC50: 0.378 µM
OVCAR-3
  IC50: 0.244 µM
SCCOHT-1
  IC50: 0.185 µM
COV434
  IC50: 0.339 µM
IGROV-1
  IC50: 0.49 µM
A2780
  IC50: 0.219 µM
OVCAR-8
  IC50: 0.113 µM
SKOV-3
  IC50: 0.509 µM
[1]; PO-5 mg/kg
  AUC % Extrap: 1.02%
  CI/Fobs: 912 mL/min/kg
  AUC(0-inf): 91.4 ng·h/mL
  AUC(0-t): 90.4 ng·h/mL
  Cmax: 20.9 ng/mL
  Tmax: 60 min
  bioavailability: 16.2%
  half-life: 216 min
  Vd/F: 284 L/kg
HepG2
  IC50: 0.631 µM
MeWo
  IC50: 0.612 µM
Y79
  IC50: 0.631 µM
HCC1806
  IC50: 0.465 µM
SK-Hep-1
  IC50: 1 µM
A498
  IC50: 0.352 µM
MC38
  IC50: 0.493 µM
L1210
  IC50: 0.324 µM
GL261
  IC50: 1.2 µM
4T1
  IC50: 0.185 µM
CT26
  IC50: 3.21 µM
